For eleven molecules, EC50 and CC50 results are on record in US12227520B2 (priority 2019, dated 2025).

In general, CC50 refers to the concentration giving 50% cytotoxicity.

One data set relates to HIV-1 (IIIB). Description: Antiviral assay in MT-4 cells (HIV MT-4 antiviral assay). The class given is cell-based. Particulars: HIV-1 (IIIB) in MT-4 cells, 5 days incubation. Summed up:
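Read-out is CellTiter-Glo chemiluminescence after 5-day culture at 37° C, giving protection of MT-4 cells from HIV-1 IIIB cytopathicity. Compounds tested in 1:3 dilution series in complete RPMI; controls were no drug, mock infection and 5 μM AZT.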

Another data set relates to uninfected MT-4 cells. Description: Cytotoxicity assay in MT-4 cells. The class given is cell-based, human. Conditions: uninfected MT-4 cells, 5 days incubation. Summed up:
(§1)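 For cytotoxicity, uninfected MT-4 cells were incubated with compounds 5 days at 37 °C, with 10 μM puromycin marking base cytotoxicity. Parallel plates used HIV-1 IIIB-infected (1:250 stock dilution) or mock cells with 5 μM AZT and no-drug controls. Read-out: CellTiter-Glo chemiluminescence.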

The next data set deals with pLai RLuc reporter virus. In words: microbe, parasite or virus in culture. The data set is classed as cell-based, HIV. Summed up: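 Read-out is Renilla luciferase after 72 h at 37 °C in MT-4 cells infected 2 h beforehand with pLai RLuc reporter virus; compounds diluted 1:3.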
Data set [1] can be described thus: Cytotoxicity assay in MT-4 cells. The data set is classed as cell-based, human. Conditions: human, uninfected MT-4 cells, 5 days incubation; read-out: CC50. Summed up:
as §1

Where [2] appears, read: Human immunodeficiency virus 1, 72 h, read-out: Antiviral Serum Shift RLuc 50% HS, HS/CCM (RPMI media, 10% FBS, 50% HS, 1% P/S), 72-h incubation.
Setting [3] is: Human immunodeficiency virus 1, 72 h, read-out: Antiviral Serum Shift RLuc CCM, CCM (RPMI media, 10% FBS, 1% P/S), 72-h incubation.
[4] abbreviates: read-out: Antiviral Serum Shift RLuc 50% HS, HS/CCM (RPMI media, 10% FBS, 50% HS, 1% P/S), 72-h incubation.
[5] abbreviates: read-out: Antiviral Serum Shift RLuc CCM, CCM (RPMI media, 10% FBS, 1% P/S), 72-h incubation.

Where two headings read alike, the source gives them in different places. Where only a bound is given, the exact number is not on record here.

With `O=C(NCc1c(F)cc(F)cc1F)c1cn2c(c(O)c1=O)C(=O)N1CC2CCc2ccccc21` (single isomer, unassigned) [Example 38-2], in the data set on HIV-1 (IIIB) (read-out: EC50), the EC50 amounted to 0.93 nM. In the data set on uninfected MT-4 cells, this molecule had a CC50 of 12800 nM.
As for `O=C(NCc1ccc(F)cc1F)c1cn2c(c(O)c1=O)C(=O)N1CC2CCc2cc(F)c(F)cc21` (single isomer, unassigned) [Example 50-1], the results for the EC50 in the data set with pLai RLuc reporter virus (setting [2]), in the data set with pLai RLuc reporter virus (setting [3]) and in the data set on HIV-1 (IIIB) were 0.948 nM, 0.265 nM and 1.39 nM, respectively. Moreover, the cytotoxic concentration (CC50) in the data set with uninfected MT-4 cells was > 13500 nM.
The molecule `O=C(NCc1ccc(F)cc1F)c1cn2c(c(O)c1=O)C(=O)N1CC2CCc2cc(F)c(F)cc21` (single isomer, unassigned) [Example 50-2] showed an EC50 in the data set on HIV-1 (IIIB) of 32.5 nM. Half-maximal cytotoxicity with uninfected MT-4 cells (CC50) was put at 32300 nM.
For the molecule `O=C(NCc1ccc(F)cc1F)c1cn2c(c(O)c1=O)C(=O)N1C[C@H](F)CC[C@H]2C1` (single isomer, unassigned) [Example 53-1], the EC50 in the data set on pLai RLuc reporter virus (setting [3]) was found to be 0.541 nM; in the data set with pLai RLuc reporter virus (setting [4]), 6.13 nM; in the data set with HIV-1 (IIIB) (read-out: EC50) it was 2.13 nM. Also, the cytotoxic concentration (CC50) with uninfected MT-4 cells came to 13200 nM.
In the case of `O=C(NCc1ccc(F)cc1F)c1cn2c(c(O)c1=O)C(=O)N1C[C@H](F)CC[C@H]2C1` (single isomer, unassigned) [Example 53-4], the figures for the EC50 in the data set with pLai RLuc reporter virus (setting [4]), in the data set on pLai RLuc reporter virus (setting [5]) and with HIV-1 (IIIB) (read-out: EC50) were 18.3 nM, 0.696 nM and 4.72 nM, respectively. Also, the CC50 in the data set on uninfected MT-4 cells is > 44400 nM.
Consider `O=C(NCc1ccc(F)cc1F)c1cn2c(c(O)c1=O)C(=O)N1CC2CCc2cc(F)ccc21` (single isomer, unassigned) [Example 55-2], for which the results for the EC50 in the data set on pLai RLuc reporter virus (setting [2]), in the data set with pLai RLuc reporter virus (setting [3]) and in the data set with HIV-1 (IIIB) were 1.32 nM, 0.312 nM and 1.8 nM, respectively. The molecule further showed a CC50 in the data set on uninfected MT-4 cells of 7330 nM.
Turning to `O=C(NCc1c(F)cc(F)cc1F)c1cn2c(c(O)c1=O)C(=O)N1CCCC(CF)C2C1` (single isomer, unassigned) [Example 194-2, 6-(fluoromethyl)-12-hydroxy-1,11-dioxo-N-(2,4,6-trifluorobenzyl)-1,4,5,6,7,11-hexahydro-3H-2,7-methanopyrido[1,2-a][1,4]diazonine-10-carboxamide], the EC50 worked out at 2.99 nM in the data set on pLai RLuc reporter virus (setting [4]), 0.378 nM with pLai RLuc reporter virus (setting [5]) and 1.5 nM in the data set with HIV-1 (IIIB) (read-out: EC50). The molecule further displayed a 50% cytotoxic concentration (CC50) in the data set with uninfected MT-4 cells of 10500 nM.
For `CC[C@]12CCCCN(C1)C(=O)c1c(O)c(=O)c(C(=O)NCc3ccc(F)cc3F)cn12` [Example 134-1, (7S)—N-(2,4-difluorobenzyl)-7-ethyl-12-hydroxy-1,11-dioxo-1,4,5,6,7,11-hexahydro-3H-27-methanopyrido[1,2-a][1,4]diazonine-10-carboxamide], in the data set on HIV-1 (IIIB) (read-out: EC50), the EC50 came out at 3.29 nM. This molecule displayed a CC50 with uninfected MT-4 cells of 16200 nM.
`CC[C@@]12CCCCN(C1)C(=O)c1c(O)c(=O)c(C(=O)NCc3ccc(F)cc3F)cn12` [Example 134-2, (7R)—N-(2,4-difluorobenzyl)-7-ethyl-12-hydroxy-1,11-dioxo-1,4,5,6,7,11-hexahydro-3H-27-methanopyrido[1,2-a][1,4]diazonine-10-carboxamide]: the EC50 with HIV-1 (IIIB) (read-out: EC50) worked out at 5.7 nM. Moreover, half-maximal cytotoxicity with uninfected MT-4 cells (CC50) was put at 10600 nM.
As for `C[C@@H]1CO[C@H](C)[C@H]2CN1C(=O)c1c(O)c(=O)c(C(=O)NCc3ccc(F)cc3F)cn12` [Example 197, (3R,6R,7R)—N-(2,4-difluorobenzyl)-12-hydroxy-3,6-dimethyl-1,11-dioxo-1,3,4,6,7,11-hexahydro-2,7-methanopyrido[1,2-d][1,4,7]oxadiazonine-10-carboxamide], the EC50 is 8.35 nM in the data set on pLai RLuc reporter virus (setting [2]); 0.589 nM in the data set with pLai RLuc reporter virus (setting [3]); 1.49 nM in the data set with HIV-1 (IIIB) (Human immunodeficiency virus 1, IIIB, MT4, 120 h, read-out: EC50). Further, the CC50 at 5 days in data set [1] was 22400 nM.
As to “(7R,13R)—N-(2,4-difluorobenzyl)-12-hydroxy-13-methyl-1,11-dioxo-1,4,5,6,7,11-hexahydro-3H-2,7-methanopyrido[1,2-a][1,4]diazonine-10-carboxamide [Example 7]”, the EC50 in the data set on HIV-1 (IIIB) (read-out: EC50) worked out at 19.9 nM. For the same molecule, in the data set with uninfected MT-4 cells, the midpoint of cytotoxicity, the CC50, lay at 25400 nM.
